Measured values taken from US20130216666A1, “CASHEW NUT SHELL LIQUID WITH IMPROVED STABILITY” (IDEMITSU KOSAN CO., LTD., priority 2010, published 2013).
Where two headings read alike, the source gives them in different places.

Tests used:
[1] = Inhibition of decarboxylation reaction in feed; conditions: 10% by weight in unheated CNSL, 80° C.; for Anacardic Acid 15:1 Composition (%) / Anacardic Acid 15:1 concentration / Anacardic Acid 15:2 Composition (%) / Anacardic Acid 15:2 concentration / Anacardic Acid 15:3 Composition (%) / Anacardic Acid 15:3 concentration / Cardanol 15:1 Composition (%) / Cardanol 15:1 concentration / Cardanol 15:2 Composition (%) / Cardanol 15:2 concentration / Cardanol 15:3 Composition (%) / Cardanol 15:3 concentration: silica composition 1% by weight in feed;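 further: ethyl acetate extract of test feed analysed by reversed-phase C18 HPLC with absorbance detection at 280 nm, giving component composition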
Experimental: The analysis was carried out under the conditions of a solvent composition of acetonitrile: water: acetic acid =80:20:1 (based on volume), a flow rate of 2 ml/min, a temperature of 25° C., and an absorbance of 280 nm.
Samples were taken from the beakers after 3 days and analyzed for composition by HPLC.
For HPLC analysis, soluble fractions of the test feed was extracted with ethyl acetate and then filtered and dried to concentrate it to 5 mg/ml.

[2] = Inhibition of decarboxylation reaction in unheated cashew nut shell liquid formulation (silica), phosphoric acid / phosphate; assay type: physicochemical; conditions: 80° C.; for Anacardic Acid 15:1 Composition (%) / Anacardic Acid 15:1 concentration / Anacardic Acid 15:2 Composition (%) / Anacardic Acid 15:2 concentration / Anacardic Acid 15:3 Composition (%) / Anacardic Acid 15:3 concentration / Cardanol 15:1 Composition (%) / Cardanol 15:1 concentration / Cardanol 15:2 Composition (%) / Cardanol 15:2 concentration / Cardanol 15:3 Composition (%) / Cardanol 15:3 concentration: 10% by weight in unheated CNSL, mixed with silica; for inhibition of the decarboxylation: formulation with silica, 10% by weight, 3 days
Experimental: 10 g of silica (Sipernat 22) was placed into each of beakers. […] The sodium dihydrogen phosphate was added as an aqueous solution.

[3] = 80° C.; for Anacardic Acid 15:1 Composition (%) / Anacardic Acid 15:1 concentration / Anacardic Acid 15:2 Composition (%) / Anacardic Acid 15:2 concentration / Anacardic Acid 15:3 Composition (%) / Anacardic Acid 15:3 concentration / Cardanol 15:1 concentration / Cardanol 15:2 Composition (%) / Cardanol 15:2 concentration / Cardanol 15:3 Composition (%) / Cardanol 15:3 concentration / Cardanol 15:1 Composition (%): 10% by weight in unheated CNSL; for inhibition of the decarboxylation: 10% by weight, three days

Q: With O=P(O)(O)O [Phosphoric Acid, phosphoric acid] as the compound, how does the “stability of the shell liquid in the feed (progress of the decarboxylation)” value ([1]; in feed, 3 days) read?
A: stable in the feed without progress of the decarboxylation

Q: And the “Anacardic Acid 15:1 Composition (%)” value ([1]; Day 0)?
A: 40.28%

Q: And the “Anacardic Acid 15:1 concentration” value ([1]; Day 0)?
A: 363.92 ppm

Q: What about the “Anacardic Acid 15:2 Composition (%)” value ([1]; Day 0) of the same compound?
A: 13.76%

Q: What about the “Anacardic Acid 15:2 concentration” value ([1]; Day 0) of the same compound?
A: 124.28 ppm

Q: And the “Anacardic Acid 15:3 Composition (%)” value ([1]; Day 0)?
A: 33.11%

Q: What about the “Anacardic Acid 15:3 concentration” value ([1]; Day 0) of the same compound?
A: 299.13 ppm

Q: What about the “Cardanol 15:1 Composition (%)” value ([1]; Day 0) of the same compound?
A: 5.39%

Q: What about the “Cardanol 15:1 concentration” value ([1]; Day 0) of the same compound?
A: 48.69 ppm

Q: What about the “Cardanol 15:2 Composition (%)” value ([1]; Day 0) of the same compound?
A: 2.31%

Q: And the “Cardanol 15:2 concentration” value ([1]; Day 0)?
A: 20.83 ppm

Q: And the “Cardanol 15:3 Composition (%)” value ([1]; Day 0)?
A: 5.15%

Q: And the “Cardanol 15:3 concentration” value ([1]; Day 0)?
A: 46.52 ppm

Q: And the “Anacardic Acid 15:1 Composition (%)” value ([1]; Day 3)?
A: 39.75%

Q: And the “Anacardic Acid 15:1 concentration” value ([1]; Day 3)?
A: 345.72 ppm

Q: And the “Anacardic Acid 15:2 Composition (%)” value ([1]; Day 3)?
A: 13.57%

Q: What about the “Anacardic Acid 15:2 concentration” value ([1]; Day 3) of the same compound?
A: 118.06 ppm

Q: And the “Anacardic Acid 15:3 Composition (%)” value ([1]; Day 3)?
A: 32.67%

Q: What about the “Anacardic Acid 15:3 concentration” value ([1]; Day 3) of the same compound?
A: 284.18 ppm

Q: What about the “Cardanol 15:1 Composition (%)” value ([1]; Day 3) of the same compound?
A: 5.88%

Q: What about the “Cardanol 15:1 concentration” value ([1]; Day 3) of the same compound?
A: 51.13 ppm

Q: And the “Cardanol 15:2 Composition (%)” value ([1]; Day 3)?
A: 2.51%

Q: And the “Cardanol 15:2 concentration” value ([1]; Day 3)?
A: 21.87 ppm

Q: And the “Cardanol 15:3 Composition (%)” value ([1]; Day 3)?
A: 5.62%

Q: And the “Cardanol 15:3 concentration” value ([1]; Day 3)?
A: 48.85 ppm

Q: And the “Anacardic Acid 15:1 Composition (%)” value ([2]; Day 0)?
A: 40.20%

Q: And the “Anacardic Acid 15:1 concentration” value ([2]; Day 0)?
A: 563.78 ppm

Q: What about the “Anacardic Acid 15:2 Composition (%)” value ([2]; Day 0) of the same compound?
A: 14.00%

Q: And the “Anacardic Acid 15:2 concentration” value ([2]; Day 0)?
A: 196.40 ppm

Q: And the “Anacardic Acid 15:3 Composition (%)” value ([2]; Day 0)?
A: 32.21%

Q: What about the “Anacardic Acid 15:3 concentration” value ([2]; Day 0) of the same compound?
A: 451.72 ppm

Q: And the “Cardanol 15:1 Composition (%)” value ([2]; Day 0)?
A: 5.74%

Q: And the “Cardanol 15:1 concentration” value ([2]; Day 0)?
A: 80.56 ppm

Q: What about the “Cardanol 15:2 Composition (%)” value ([2]; Day 0) of the same compound?
A: 2.45%

Q: And the “Cardanol 15:2 concentration” value ([2]; Day 0)?
A: 34.39 ppm

Q: And the “Cardanol 15:3 Composition (%)” value ([2]; Day 0)?
A: 5.39%

Q: And the “Cardanol 15:3 concentration” value ([2]; Day 0)?
A: 75.66 ppm

Q: What about the “Anacardic Acid 15:1 Composition (%)” value ([2]; Day 3) of the same compound?
A: 38.30%

Q: What about the “Anacardic Acid 15:1 concentration” value ([2]; Day 3) of the same compound?
A: 496.13 ppm

Q: And the “Anacardic Acid 15:2 Composition (%)” value ([2]; Day 3)?
A: 13.34%

Q: What about the “Anacardic Acid 15:2 concentration” value ([2]; Day 3) of the same compound?
A: 172.83 ppm

Q: And the “Anacardic Acid 15:3 Composition (%)” value ([2]; Day 3)?
A: 30.69%

Q: And the “Anacardic Acid 15:3 concentration” value ([2]; Day 3)?
A: 397.52 ppm

Q: What about the “Cardanol 15:1 Composition (%)” value ([2]; Day 3) of the same compound?
A: 7.46%

Q: What about the “Cardanol 15:1 concentration” value ([2]; Day 3) of the same compound?
A: 96.68 ppm

Q: What about the “Cardanol 15:2 Composition (%)” value ([2]; Day 3) of the same compound?
A: 3.19%

Q: What about the “Cardanol 15:2 concentration” value ([2]; Day 3) of the same compound?
A: 41.27 ppm

Q: And the “Cardanol 15:3 Composition (%)” value ([2]; Day 3)?
A: 7.01%

Q: What about the “Cardanol 15:3 concentration” value ([2]; Day 3) of the same compound?
A: 90.79 ppm

Q: And the “inhibition of the decarboxylation” value [2]?
A: significant inhibition

Q: And the “Anacardic Acid 15:1 Composition (%)” value ([3]; Day 0)?
A: 32.73%

Q: And the “Anacardic Acid 15:1 concentration” value ([3]; Day 0)?
A: 978 ppm

Q: And the “Anacardic Acid 15:2 Composition (%)” value ([3]; Day 0)?
A: 18.69%

Q: What about the “Anacardic Acid 15:2 concentration” value ([3]; Day 0) of the same compound?
A: 559 ppm

Q: And the “Anacardic Acid 15:3 Composition (%)” value ([3]; Day 0)?
A: 42.99%

Q: And the “Anacardic Acid 15:3 concentration” value ([3]; Day 0)?
A: 1285 ppm

Q: What about the “Cardanol 15:1 concentration” value ([3]; Day 0) of the same compound?
A: 46 ppm

Q: And the “Cardanol 15:2 Composition (%)” value ([3]; Day 0)?
A: 1.26%

Q: What about the “Cardanol 15:2 concentration” value ([3]; Day 0) of the same compound?
A: 38 ppm

Q: And the “Cardanol 15:3 Composition (%)” value ([3]; Day 0)?
A: 2.78%

Q: What about the “Cardanol 15:3 concentration” value ([3]; Day 0) of the same compound?
A: 83 ppm

Q: And the “Anacardic Acid 15:1 Composition (%)” value ([3]; Day 3)?
A: 32.55%

Q: What about the “Anacardic Acid 15:1 concentration” value ([3]; Day 3) of the same compound?
A: 968 ppm

Q: And the “Anacardic Acid 15:2 Composition (%)” value ([3]; Day 3)?
A: 18.61%

Q: What about the “Anacardic Acid 15:2 concentration” value ([3]; Day 3) of the same compound?
A: 554 ppm

Q: What about the “Anacardic Acid 15:3 Composition (%)” value ([3]; Day 3) of the same compound?
A: 42.80%

Q: What about the “Anacardic Acid 15:3 concentration” value ([3]; Day 3) of the same compound?
A: 1273 ppm

Q: What about the “Cardanol 15:1 concentration” value ([3]; Day 3) of the same compound?
A: 46 ppm

Q: And the “Cardanol 15:2 Composition (%)” value ([3]; Day 3)?
A: 1.41%

Q: What about the “Cardanol 15:2 concentration” value ([3]; Day 3) of the same compound?
A: 42 ppm

Q: And the “Cardanol 15:3 Composition (%)” value ([3]; Day 3)?
A: 3.10%

Q: What about the “Cardanol 15:3 concentration” value ([3]; Day 3) of the same compound?
A: 92 ppm

Q: What about the “inhibition of the decarboxylation” value [3] of the same compound?
A: significant inhibition

Q: Which results are given for O=P([O-])(O)O.[Na+] [Sodium Dihydrogen Phosphate, sodium dihydrogen phosphate]?
A: Anacardic Acid 15:1 Composition (%) ([2]; Day 0): 40.20%; Anacardic Acid 15:1 concentration ([2]; Day 0): 563.78 ppm; Anacardic Acid 15:2 Composition (%) ([2]; Day 0): 14.00%; Anacardic Acid 15:2 concentration ([2]; Day 0): 196.40 ppm; Anacardic Acid 15:3 Composition (%) ([2]; Day 0): 32.21%; Anacardic Acid 15:3 concentration ([2]; Day 0): 451.72 ppm; Cardanol 15:1 Composition (%) ([2]; Day 0): 5.74%; Cardanol 15:1 concentration ([2]; Day 0): 80.56 ppm; Cardanol 15:2 Composition (%) ([2]; Day 0): 2.45%; Cardanol 15:2 concentration ([2]; Day 0): 34.39 ppm; Cardanol 15:3 Composition (%) ([2]; Day 0): 5.39%; Cardanol 15:3 concentration ([2]; Day 0): 75.66 ppm; Anacardic Acid 15:1 Composition (%) ([2]; Day 3): 32.90%; Anacardic Acid 15:1 concentration ([2]; Day 3): 502.26 ppm; Anacardic Acid 15:2 Composition (%) ([2]; Day 3): 11.28%; Anacardic Acid 15:2 concentration ([2]; Day 3): 172.11 ppm; Anacardic Acid 15:3 Composition (%) ([2]; Day 3): 25.93%; Anacardic Acid 15:3 concentration ([2]; Day 3): 395.86 ppm; Cardanol 15:1 Composition (%) ([2]; Day 3): 13.16%; Cardanol 15:1 concentration ([2]; Day 3): 200.81 ppm; Cardanol 15:2 Composition (%) ([2]; Day 3): 5.23%; Cardanol 15:2 concentration ([2]; Day 3): 79.82 ppm; Cardanol 15:3 Composition (%) ([2]; Day 3): 11.50%; Cardanol 15:3 concentration ([2]; Day 3): 175.60 ppm; inhibition of the decarboxylation [2]: moderate inhibition; Anacardic Acid 15:1 Composition (%) ([3]; Day 0): 39.93%; Anacardic Acid 15:1 concentration ([3]; Day 0): 1103 ppm; Anacardic Acid 15:2 Composition (%) ([3]; Day 0): 14.10%; Anacardic Acid 15:2 concentration ([3]; Day 0): 389 ppm; Anacardic Acid 15:3 Composition (%) ([3]; Day 0): 32.43%; Anacardic Acid 15:3 concentration ([3]; Day 0): 896 ppm; Cardanol 15:1 Composition (%) ([3]; Day 0): 5.46%; Cardanol 15:1 concentration ([3]; Day 0): 151 ppm; Cardanol 15:2 Composition (%) ([3]; Day 0): 2.52%; Cardanol 15:2 concentration ([3]; Day 0): 70 ppm; Cardanol 15:3 Composition (%) ([3]; Day 0): 5.55%; Cardanol 15:3 concentration ([3]; Day 0): 153 ppm; Anacardic Acid 15:1 Composition (%) ([3]; Day 3): 30.94%; Anacardic Acid 15:1 concentration ([3]; Day 3): 964 ppm; Anacardic Acid 15:2 Composition (%) ([3]; Day 3): 10.81%; Anacardic Acid 15:2 concentration ([3]; Day 3): 337 ppm; Anacardic Acid 15:3 Composition (%) ([3]; Day 3): 24.87%; Anacardic Acid 15:3 concentration ([3]; Day 3): 774 ppm; Cardanol 15:1 Composition (%) ([3]; Day 3): 14.32%; Cardanol 15:1 concentration ([3]; Day 3): 446 ppm; Cardanol 15:2 Composition (%) ([3]; Day 3): 5.95%; Cardanol 15:2 concentration ([3]; Day 3): 185 ppm; Cardanol 15:3 Composition (%) ([3]; Day 3): 13.10%; Cardanol 15:3 concentration ([3]; Day 3): 408 ppm; inhibition of the decarboxylation [3]: moderate inhibition
